Reference: article PMC13053910, “Covalent Protein Inhibitors via Tyrosine and Tryptophan Conjugation with Cyclic Imine Mannich Electrophiles” (Angewandte Chemie (International Ed. in English), 2026)
Where two headings read alike, the source gives them in different places.

Legend:
CBX8 Y39F = target: T1, CBX8 Y39F (Homo sapiens, UniProt Q9HC52, Y39F); assay: Labeling of CBX8 Y39F mutant (gel shift, LC/MS); assay type: binding; conditions: gel shift and LC/MS, 10 µM each, 37 °C
T1 construct: 6His (N); TEV site (ENLYFQG), read by me from the printed insert DNA (N); host or cells: E. coli (BL21 CodonPlus RIL or Rosetta 2), pET-28a(+)
T1 sequence (Q9HC52 11-69 Y39F limits assumed): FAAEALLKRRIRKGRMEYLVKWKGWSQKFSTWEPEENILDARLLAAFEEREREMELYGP
Method: (§1) Observed masses are shown (expected average mass for CBX8 ChD = 8792 Da). The observed mass difference (913 Da) agrees with the expected mass change of 913 Da. b) Labeled protein was detected by gel shift on 16.5% Tris‐Tricine SDS‐PAGE. […] Gel analysis was conducted on a 2.5% agarose gel in 10 mM sodium borate buffer. […] Assays were conducted using SW2_113 as an FP probe (Figure S20) at 100 nM. All proteins were used at 2 µM in PBS (pH 7), 0.02% Tween 20. Error bars represent SD. […] (μM); no other compound label is printed beside the IC50 lines
We confirmed protein labeling through a gel shift assay on Tris‐Tricine SDS‐PAGE (Figure 5b). […] To validate labeling of the targeted tyrosine residue (Y39), this amino acid was mutated to phenylalanine. […] We additionally confirmed the labeling site as Y39 by trypsin digest and LC‐MS/MS analysis (Figure S9B).
For P2, 10 µM purified CBX ChD was incubated with P2 (10 µM) in PBS buffer (pH 7) at 37 °C or R.T. for 1.5 hours, as well as 12 hours overnight. Samples were precipitated using MeOH and CHCl3 at the volume ratio of MeOH:CHCl3:sample=3:0.5:1, washed twice using cold MeOH, and air dried. Dried protein pellets were resuspended in aqueous buffer (0.1% formic acid, 300 mM ammonium acetate), and protein labeling were characterized and quantitated by ESI LC-MS.

CBX8 ChD Y39F = target: T2, CBX8 ChD Y39F (Homo sapiens, UniProt Q9HC52, Y39F); assay: Time-dependent fluorescence polarization displacement assay, CBX8 Y39F; assay type: binding; conditions: for IC50: Figure 5d, CBX8 Y39F 2 µM, probe 100 nM
T2 construct: 6His (N); TEV site (ENLYFQG), read by me from the printed insert DNA (N); host or cells: E. coli (BL21 CodonPlus RIL or Rosetta 2), pET-28a(+)
T2 sequence (Q9HC52 11-69 Y39F limits assumed): T1 sequence (Q9HC52 11-69 Y39F limits assumed)
Method: as §1
2.2 Fluorescence Displacement Assay to Evaluate Time-dependent potency of Imine Covalent Inhibitors to CBX ChD. Fluorescence polarization (FP) was measured by titration of CBX ChDs (CBX8 ChD/CBX8 ChD Y39F/CBX2 ChD) to a fluoresceine-labelled probe as previously reported ^1. Fluorescence displacement assays were performed in black 384-well plates with optical bottoms. Buffer used in FP assays consists of 100 mM Na2HPO4, 150 mM NaCl, 0.02% Tween 20. […] Two-fold dilutions of covalent inhibitors were used, starting with 100 µM as highest peptide concentration to 0.049 µM as the lowest. Four replicates were tested at each concentration. Fluorescence anisotropy was read at different time points. Raw data were analyzed using GraphPad Prism 7 following a “one site-Fit logIC50” competition model with any outliers (95 % confidence interval) being excluded.
Time-dependent fluorescence displacement assay Fluorescence polarization (FP) was measured by titration of CBX ChDs (CBX8 ChD/CBX8 ChD Y39F/CBX2 ChD) to a fluorescein-labelled probe as previously reported.^8 Fluorescence displacement assays were performed in black 384-well plates with optical bottoms. Buffer used in FP assays consists of 100 mM Na2HPO4, 150 mM NaCl, 0.02% Tween 20. […] Fluorescence anisotropy was read at different time points. […] Raw data were analyzed using GraphPad Prism 7 following a “one site-Fit logIC50” competition model with any outliers (95 % confidence interval) being excluded.

[1] = tested on: HOXA9 gene expression in THP1 cells; assay: qRT-PCR analysis of HOXA9 gene expression in THP1 cells; assay type: cell-based, Human; conditions: 10 µM, 48 h
Method: Figure 7 Cellular activity of covalent, cyclic imine inhibitors to CBX8. a) qRT‐PCR analysis of HOXA9 gene expression in THP1 cells after 48 h of compound treatment at the indicated dose. N = 3. Error bars represent SD. Statistical significance was calculated using Student's t‐test. ** = p < 0.01, **** = p < 0.0001, b) qRT‐PCR analysis of HOXA9 gene expression in THP1 cells treated with increasing doses of compound for 48 h. N = 3. Error bars represent SD.
Figure S24. Cellular activity of covalent, cyclic imine inhibitors to CBX8. qRT-PCR analysis of HOXA9 gene expression in THP1 cells after 48 h of compound treatment at the indicated dose. N = 3. Error bars represent s.d. Statistical significance determined by Student’s T test. * = p <0.05, ** = p < 0.01, *** = p < 0.001, **** = p < 0.0001.
2.4 Cell Culture Cell line, Media and Culture Conditions HEK293T cells were cultured in Dubecco’s Modified Essential Media (DMEM), 10% fetal bovine serum (FBS, JR Scientific), 1% glutagro (Corning), 1% penicillin/streptomycin (Corning), 1% sodium pyruvate (Corning). Human THP1 cells were cultured in RPMI (Gibco), 10% FBS (J R Scientific), 1% Sodium pyruvate (Invitrogen), 1% Pen/Strep (Invitrogen), 1% Glutamax (Thermo Scientific), 0.1% 2-mercaptoethanol.
Cells were harvested after 48 h for RNA extraction. […] SYBR Green Mastermix (Thermo Scientific) was used for quantitative PCR. […]

[2] = Stability of warheads and inhibitors (solid, PBS, hydrolysis); assay type: physicochemical; conditions: 24 h in aqueous buffer, then sodium cyanoborohydride, mass spectrometry
Method: To be suitable for chemical probe and therapeutic applications, the warhead should show good stability. In general, we found the iminolactam warheads to be quite stable. Compound 1 was stable as a solid at room temperature for over 3 months. […] After 24‐h in aqueous buffer, compounds were treated with sodium cyanoborohydride. […] The synthetic strategy of in situ formation of imines by periodate treatment was pursued to avoid concerns of warhead reactivity with the ligand itself to either the peptide backbone or the phenoxyphenyl aryl group. This appears to have been unnecessary, at least for the iminolactam warhead. […] The more reactive ester imine may be forming semi‐stable cyclized products with the amide backbone, which have been observed previously with peptide aldehydes.^[ [51], [52] ^] Due to these issues, we selected compound P1b for further characterization.

SMILES: CC[C@H](C)[C@H](NC(=O)[C@@H](NC(=O)c1ccc(Oc2ccccc2)cc1)C1CCCC1)C(=O)N[C@@H](CCCCN(CC)CCCCCCN1CCN=CC1=O)C(=O)N[C@@H](CO)C(N)=O [P1b]
- labeling of mutant CBX8 Y39F (CBX8 Y39F): fails to label
- change in IC50 upon extended incubation (CBX8 ChD Y39F; CBX8 Y39F mutant): no change in IC50
- IC50 (CBX8 ChD Y39F; read-out: IC50 at time 0): 12 µM
- IC50 (CBX8 ChD Y39F; IC50 at 20 h): 11 µM
- reduction of HOXA9 gene expression (in words) [1]: most effective at reducing HOXA9 gene expression
- stability to long‐term incubation in PBS [2]: stability over the 24 h
